Assay results as given in patent publication EP0294695A2, “New polyoxygenated labdane derivatives, a process for their preparation, and their use as medicaments” (HOECHST AKTIENGESELLSCHAFT, priority 1987, dated 1988).

Assay: reduction of intraocular pressure
Format: in vivo
Conditions: 2% strength solution of the test compound; for Duration: duration of the decrease in intraocular pressure
Text: The results of investigations into the reduction of intraocular pressure by some typical compounds of the formula I, according to the invention, are listed in Table 2. The results are expressed as the percentage decrease in the intraocular pressure when a 2% strength solution of the test compound is used.

Structure (SMILES) | Decrease in intraocular pressure(%) | Duration [h]
C=C[C@@]1(C)CC(=O)[C@]2(O)[C@@]3(C)[C@@H](OC(=O)Nc4ccccc4)CCC(C)(C)[C@@H]3[C@H](O)[C@H](OC(=O)Nc3ccccc3)[C@@]2(C)O1 [Compound 1] | 18 | 5
C=C[C@@]1(C)CC(=O)[C@]2(O)[C@@]3(C)[C@@H](O)CCC(C)(C)[C@@H]3[C@H](O)[C@H](OC(=O)NC(C)(C)C)[C@@]2(C)O1 [Compound 4, 7β-t-Butylaminocarbonyloxy-8,13-epoxy-1α,6β9α-trihydroxylabd-14-en-11-one] | 21 | 6
C=C[C@@]1(C)CC(=O)[C@]2(O)[C@@]3(C)[C@@H](O)CCC(C)(C)[C@@H]3[C@H](O)[C@H](OC(=O)NC)[C@@]2(C)O1 [Compound 2, 8,13-Epoxy-7β-methylaminocarbonyloxy-1α,6β,9α-trihydroxylabd-14-en-11-one] | 23 | 5
C=C[C@@]1(C)CC(=O)[C@]2(O)[C@@]3(C)[C@@H](O)CCC(C)(C)[C@@H]3[C@H](O)[C@H](OC(=O)NC(C)C)[C@@]2(C)O1 [Compound 3, 7β-isopropylaminocarbonyloxy-8,13-epoxy-1α,6β,9α-trihydroxylabd-14-en-11-one] | 34 | 6
